US11939362B2, “Light-inducible protein aggregation system for modeling proteinopathies and neurodegenerative disorders” (UNIVERSITÉ LAVAL, priority 2018, dated 2024)

Tests used:
[1] = system: LIPA-α-syn aggregates; assay: Stability of LIPA-α-syn inclusions after light stimulation (proportion of mCherry-positive cells with inclusions); format: cell-based, human; settings: for reduction in the number of cells exhibiting stable LIPA-α-syn inclusions / effect on the proportion of cells with mCherry inclusions: HEK-293T cells overexpressing LIPA-α-syn; for reduction in the number of cells exhibiting stable LIPA-α-syn inclusions: 12 h pre-exposure to blue light, treatment with small molecule inhibitor, FIG. 16, n=5; for effect on the proportion of cells with mCherry inclusions: treatment with inactive small molecules, FIG. 18, n=5
Procedure: HEK-293T cells were seeded on 0.1% gelatin-coated glass coverslips in 24-well plates at a density of 10^4 cells per well (50% confluence) and transiently transfected, 24 h later, with 0.5 μg of LIPA-Empty, 0.6 μg LIPA-α-syn, and 1 μg LIPA-α-syn^ΔNAC per 4 wells, to obtain similar protein expression levels in all conditions. 24 h post-transfection, cells were exposed to blue light (λ=456 nm) using UHP-T-DI-LED series Ultra High-Power LEDs (Prizmatix), at an intensity of 0.8 mW/cm^2, as measured using LPM-100 light power meter (Amuza). Cells were collected at different time points and fixed in 4% paraformaldehyde for 15 min at room temperature (RT), then washed three times (5 min) with PBS and permeabilized with PBS containing 0.25% Triton X-100, for 30 min at RT. Cells were incubated in blocking buffer solution (PBS containing 5% BSA and 0.1% Triton X-100), for 1 h at RT. Coverslips were incubated with primary antibodies (see Table 1) diluted in blocking buffer solution for 2 h at RT. Coverslips were washed three times in blocking buffer solution (10 min) and appropriate Alexa Fluor® secondary antibodies (Life Technologies, see Table 1) were applied for 1 h at RT. Coverslips were washed twice with PBS (10 min) and counterstained with the fluorescent nuclear stain […] 4,6-diamidino-2-phenylindole (DAPI) (1:5000) for 5 min. Coverslips were then washed twice with PBS (10 min), mounted on Prolong® Gold Antifade (Molecular Probes), and imaged using a Zeiss LSM800 confocal microscope. For thioflavin S (ThS) staining, fixed and permeabilized cells were incubated with 0.05% ThS for 15 min, washed three times with 70% ethanol for 10 min, and then cells were directly counterstained with DAPI. All immunocytochemistry experiments were made with gentle rocking and protected from light.
(§1) To evaluate the number of mCherry-positive cells with aggregates, a total of 8-10 images per condition were collected using a fluorescence microscope (Nikon Eclipse 80i; 20× objective) and a total of 220-250 cells were quantified by two experimenters, in a blind manner, using ImageJ.
The stability of LIPA-α-syn inclusions in the absence of light stimulation was evaluated by assessing the proportion of mCherry-positive cells having inclusions. LIPA aggregates were allowed to form over a 12 h period under light stimulation and cells were collected at different time points up to 48 h post-illumination (FIG. 14).
The impact of treatment with potent small molecule inhibitors of α-syn aggregation, namely baicalein and myrecitin (Masuda et al., 2006; Zhu et al., 2004), on the stability of LIPA-α-syn inclusions was next evaluated. […] Treatment with baicalein or myrecitin had no effect on LIPA-Empty dissociation, confirming the specificity of these inhibitors (FIG. 17).
Previous studies have reported that both β-synuclein (β-syn) and mouse α-syn (ma-syn) overexpression inhibit human α-syn aggregation in cell culture and animal models. To test the impact of these two proteins on LIPA-α-syn inclusion formation, LIPA-α-syn was overexpressed with β-syn or ma-syn in HEK-293T cells, then transiently exposed to blue light for 12 h.

[2] = target: T1, LIPA-Empty aggregates (Arabidopsis thaliana, UniProt Q96524, E490G); assay: Stability/dissociation of LIPA-Empty inclusions after light stimulation (proportion of mCherry-positive cells with inclusions); format: cell-based, human; settings: HEK-293T cells overexpressing LIPA-Empty, 12 h pre-exposure to blue light, FIG. 17, n=5
T1 construct: expressed in transfected cells; host or cells: HEK-293T
T1 sequence (Q96524 1-498 E490G): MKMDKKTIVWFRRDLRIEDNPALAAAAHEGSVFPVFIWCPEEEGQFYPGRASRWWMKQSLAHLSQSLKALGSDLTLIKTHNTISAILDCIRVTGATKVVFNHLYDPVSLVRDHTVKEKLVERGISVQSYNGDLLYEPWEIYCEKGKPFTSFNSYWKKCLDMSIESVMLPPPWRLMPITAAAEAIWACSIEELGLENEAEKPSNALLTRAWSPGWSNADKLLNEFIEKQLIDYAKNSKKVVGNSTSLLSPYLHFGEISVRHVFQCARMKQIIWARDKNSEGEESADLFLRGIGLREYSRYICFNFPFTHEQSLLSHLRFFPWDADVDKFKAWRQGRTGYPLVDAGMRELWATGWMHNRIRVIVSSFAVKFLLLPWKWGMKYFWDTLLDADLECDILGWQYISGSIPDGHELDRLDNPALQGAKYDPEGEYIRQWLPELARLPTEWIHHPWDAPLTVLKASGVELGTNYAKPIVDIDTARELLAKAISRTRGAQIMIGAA
Procedure: HEK-293T cells were seeded on 0.1% gelatin-coated glass coverslips in 24-well plates at a density of 10^4 cells per well (50% confluence) and transiently transfected, 24 h later, with 0.5 μg of LIPA-Empty, 0.6 μg LIPA-α-syn, and 1 μg LIPA-α-syn^ΔNAC per 4 wells, to obtain similar protein expression levels in all conditions. 24 h post-transfection, cells were exposed to blue light (λ=456 nm) using UHP-T-DI-LED series Ultra High-Power LEDs (Prizmatix), at an intensity of 0.8 mW/cm^2, as measured using LPM-100 light power meter (Amuza). […]
as §1
The stability of LIPA-α-syn inclusions in the absence of light stimulation was evaluated by assessing the proportion of mCherry-positive cells having inclusions. […]
The impact of treatment with potent small molecule inhibitors of α-syn aggregation, namely baicalein and myrecitin (Masuda et al., 2006; Zhu et al., 2004), on the stability of LIPA-α-syn inclusions was next evaluated. […]

Molecule | reduction in the number of cells exhibiting stable LIPA-α-syn inclusions [1] | effect on LIPA-Empty dissociation [2] | effect on the proportion of cells with mCherry inclusions [1] | reduction of the proportion of cells exhibiting mCherry aggregates (LIPA-α-syn inclusions) ([1]; co-overexpression with LIPA-α-syn in HEK-293T cells, blue light 12 h, post-stimulation analysis, FIG. 19 and 21, n=5)
O=c1cc(-c2ccccc2)oc2cc(O)c(O)c(O)c12 [baicalein] | 50% | no effect | – | –
O=c1c(-c2ccc(O)cc2)coc2cc(O)ccc12 [daidzein] | – | – | did not affect | –
O=c1c(O)c(-c2cc(O)c(O)c(O)c2)oc2cc(O)cc(O)c12 [myrecitin] | 50% | no effect | – | –
O=C1C[C@@H](c2ccc(O)cc2)Oc2cc(O)cc(O)c21 [naringenin] | – | – | did not affect | –
β-syn: β-synuclein overexpressed in cells; reported to inhibit human α-syn aggregation | – | – | – | significant reduction
